Measurements reported in US9730944B2, “Antiviral activity of novel bicyclic heterocycles” (priority 2010, dated 2017).
In brackets after ≈: the same amount, converted by molar mass.

Columns and labels:
[1] = tested on: hRV-2; experiment: Rhinovirus type 2 antiviral assay in Hela Rh cells, MTS readout; type: cell-based, Human rhinovirus; details: Rhinovirus A, HRV2, HeLa Rh, Hela Rh cells; read-out: hRV-2 EC50
[2] = tested on: hRV-9; experiment: Rhinovirus type 9 antiviral assay in Hela Rh cells, MTS readout; type: cell-based, Human rhinovirus; details: Human rhinovirus sp., HRV9, HeLa Rh, Hela Rh cells; read-out: hRV-9 EC50
[3] = tested on: hRV-14; experiment: Rhinovirus type 14 antiviral assay in Hela Rh cells, MTS readout; type: cell-based, Human rhinovirus; details: Rhinovirus B, HRV14, HeLa Rh, Hela Rh cells; read-out: hRV-14 EC50
[4] = tested on: hRV-15; experiment: Rhinovirus type 15 antiviral assay in Hela Rh cells, MTS readout; type: cell-based, Human rhinovirus; details: Human rhinovirus sp., HRV15, HeLa Rh, Hela Rh cells; read-out: hRV-15 EC50
[5] = tested on: hRV-29; experiment: Rhinovirus type 29 antiviral assay in Hela Rh cells, MTS readout; type: cell-based; details: Human rhinovirus sp., HRV29, HeLa Rh, Hela Rh cells; read-out: hRV-29 EC50
[6] = tested on: hRV-39; experiment: Rhinovirus type 39 antiviral assay in Hela Rh cells, MTS readout; type: cell-based, Human rhinovirus; details: Human rhinovirus sp., HRV39, HeLa Rh, Hela Rh cells; read-out: hRV-39 EC50
[7] = tested on: hRV-41; experiment: Rhinovirus type 41 antiviral assay in Hela Rh cells, MTS readout; type: cell-based, Human rhinovirus; details: Human rhinovirus sp., HRV41, HeLa Rh, Hela Rh cells; read-out: hRV-41 EC50
[8] = tested on: hRV-42; experiment: Rhinovirus type 42 antiviral assay in Hela Rh cells, MTS readout; type: cell-based, Human rhinovirus; details: Human rhinovirus sp., HRV42, HeLa Rh, Hela Rh cells; read-out: hRV-42 EC50
[9] = tested on: hRV-45; experiment: Rhinovirus type 45 antiviral assay in Hela Rh cells, MTS readout; type: cell-based, Human rhinovirus; details: Human rhinovirus sp., HRV45, HeLa Rh, Hela Rh cells; read-out: hRV-45 EC50
[10] = tested on: hRV-63; experiment: Rhinovirus type 63 antiviral assay in Hela Rh cells, MTS readout; type: cell-based, Human rhinovirus; details: Human rhinovirus sp., HRV63, HeLa Rh, Hela Rh cells; read-out: hRV-63 EC50
[11] = tested on: hRV-70; experiment: Rhinovirus type 70 antiviral assay in Hela Rh cells, MTS readout; type: cell-based, Human rhinovirus; details: Human rhinovirus sp., HRV70, HeLa Rh, Hela Rh cells; read-out: hRV-70 EC50
[12] = tested on: hRV-72; experiment: Rhinovirus type 72 antiviral assay in Hela Rh cells, MTS readout; type: cell-based, Human rhinovirus; details: Human rhinovirus sp., HRV72, HeLa Rh, Hela Rh cells; read-out: hRV-72 EC50
[13] = tested on: hRV-85; experiment: Rhinovirus type 85 antiviral assay in Hela Rh cells, MTS readout; type: cell-based, Human rhinovirus; details: Human rhinovirus sp., HRV85, HeLa Rh, Hela Rh cells; read-out: hRV-85 EC50
[14] = tested on: hRV-86; experiment: Rhinovirus type 86 antiviral assay in Hela Rh cells, MTS readout; type: cell-based, Human rhinovirus; details: Human rhinovirus sp., HRV86, HeLa Rh, Hela Rh cells; read-out: hRV-86 EC50
[15] = Cytostatic/cytotoxic effect in Hela Rh cells (rhinovirus methodology, MTS); details: human, CC50, Hela Rh cells

| Compound | EC50 [1] [µg/mL] | EC50 [2] [µg/mL] | EC50 [3] [µg/mL] | EC50 [4] [µg/mL] | EC50 [5] [µg/mL] | EC50 [6] [µg/mL] | EC50 [7] [µg/mL] | EC50 [8] [µg/mL] | EC50 [9] [µg/mL] | EC50 [10] [µg/mL] | EC50 [11] [µg/mL] | EC50 [12] [µg/mL] | EC50 [13] [µg/mL] | EC50 [14] [µg/mL] | CC50 [15] [µg/mL] |
| --- | --- | --- | --- | --- | --- | --- | --- | --- | --- | --- | --- | --- | --- | --- | --- |
| CC(C)(C)OC(=O)N[C@@H]1CCN(c2nc(N)nc3sc(-c4ccc(F)cc4)cc23)C1 [Example 338, (R)-tert-butyl 1-(2-amino-6-(4-fluorophenyl)thieno[2,3-d]pyrimidin-4-yl)pyrrolidin-3-ylcarbamate] | 0.37 (≈ 0.861 µM) | 0.78 (≈ 1.82 µM) | 1.11 (≈ 2.58 µM) | 1.52 (≈ 3.54 µM) | 0.39 (≈ 0.908 µM) | 0.38 (≈ 0.885 µM) | 27.4 (≈ 63.7 µM) | 5.65 (≈ 13.2 µM) | 4.23 (≈ 9.85 µM) | 8.43 (≈ 19.6 µM) | 3.65 (≈ 8.5 µM) | 4.96 (≈ 11.5 µM) | 2.17 (≈ 5.05 µM) | 2.37 (≈ 5.52 µM) | > 50 |
| Nc1nc(N2CCN(C(=O)COc3ccc(F)cc3)CC2)c2nc(-c3ccc(F)cc3)sc2n1 [Example 233, 1-(4-(5-amino-2-(4-fluorophenyl)thiazolo[5,4-d]pyrimidin-7-yl)piperazin-1-yl)-2-(4-fluorophenoxy)ethanone] | < 0.02 | < 0.02 | < 0.02 | < 0.02 | < 0.02 | < 0.02 | < 0.39 | < 0.39 | < 0.39 | < 0.39 | < 0.39 | 0.88 (≈ 1.82 µM) | < 0.39 | < 0.39 | > 50 |
| Nc1nc(N2CCN(C(=O)COc3ccc(OC(F)(F)F)cc3)CC2)c2nc(CCc3ccc(F)cc3)sc2n1 [Example 226, 1-(4-(5-amino-2-(4-fluorophenethyl)thiazolo[5,4-d]pyrimidin-7-yl)piperazin-1-yl)-2-(4-(trifluoromethoxy)phenoxy)ethanone] | > 50 | > 50 | > 50 | > 50 | > 50 | > 50 | > 50 | > 50 | > 50 | > 50 | > 50 | > 50 | 29.9 (≈ 51.9 µM) | > 50 | > 50 |
| Nc1nc(N2CCN(C(=O)COc3cccc([N+](=O)[O-])c3)CC2)c2nc(CCc3ccc(F)cc3)sc2n1 [Example 131, 5-amino-2-[2-(4-fluorophenyl)ethyl]-7-(4-[2-(3-nitrophenoxy)acetyl]piperazin-1-yl)-thiazolo[5,4-d]pyrimidine] | 2.5 (≈ 4.65 µM) | 2.11 (≈ 3.93 µM) | > 50 | > 50 | > 50 | 1.52 (≈ 2.83 µM) | > 50 | 12.3 (≈ 22.8 µM) | 9.05 (≈ 16.8 µM) | 34.5 (≈ 64.3 µM) | 15.3 (≈ 28.4 µM) | 37.7 (≈ 70.2 µM) | 7.26 (≈ 13.5 µM) | 7.07 (≈ 13.2 µM) | > 50 |
| Nc1nc(N2CCN(C(=O)COc3ccc(Cl)cc3)CC2)c2nc(CCCc3ccc(F)cc3)sc2n1 [Example 290, 1-(4-(5-amino-2-(3-(4-fluorophenyl)propyl)thiazolo[5,4-d]pyrimidin-7-yl)piperazin-1-yl)-2-(4-chlorophenoxy)ethanone] | 49.2 (≈ 91 µM) | > 50 | > 50 | > 50 | > 50 | > 50 | > 50 | > 50 | > 50 | > 50 | > 50 | > 50 | 19.4 (≈ 35.8 µM) | > 50 | > 50 |
| COc1ccc(OCC(=O)N2CCN(c3nc(N)nc4sc(CCc5ccc(Br)cc5)nc34)CC2)cc1 [Example 298, 1-(4-(5-amino-2-(4-bromophenethyl)thiazolo[5,4-d]pyrimidin-7-yl)piperazin-1-yl)-2-(4-methoxyphenoxy)ethanone] | 0.45 (≈ 0.771 µM) | 0.55 (≈ 0.943 µM) | 1.23 (≈ 2.11 µM) | 1.61 (≈ 2.76 µM) | 0.89 (≈ 1.53 µM) | 0.45 (≈ 0.771 µM) | 10.4 (≈ 17.8 µM) | 1.2 (≈ 2.06 µM) | 4.56 (≈ 7.81 µM) | 3.9 (≈ 6.68 µM) | 4.71 (≈ 8.07 µM) | 6.52 (≈ 11.2 µM) | 2.21 (≈ 3.79 µM) | 4.58 (≈ 7.85 µM) | > 50 |
| COc1cccc(CCc2nc3c(N4CCN(C(=O)COc5ccc(Br)cc5)CC4)nc(N)nc3s2)c1 [Example 254, 1-(4-(5-amino-2-(3-methoxyphenethyl)thiazolo[5,4-d]pyrimidin-7-yl)piperazin-1-yl)-2-(4-bromophenoxy)ethanone] | 1.3 (≈ 2.23 µM) | 1.26 (≈ 2.16 µM) | 1.23 (≈ 2.11 µM) | 3.44 (≈ 5.9 µM) | 1.27 (≈ 2.18 µM) | 1.18 (≈ 2.02 µM) | 13 (≈ 22.3 µM) | 2.41 (≈ 4.13 µM) | 4.87 (≈ 8.35 µM) | 5.85 (≈ 10 µM) | 4.77 (≈ 8.17 µM) | 9.05 (≈ 15.5 µM) | 3.99 (≈ 6.84 µM) | 4.62 (≈ 7.92 µM) | > 50 |
| COc1ccc(OCC(=O)N2CCN(c3nc(N)nc4sc(CCCCc5ccc(F)cc5)nc34)CC2)cc1 [Example 293, 1-(4-(5-amino-2-(4-(4-fluorophenyl)butyl)thiazolo[5,4-d]pyrimidin-7-yl)piperazin-1-yl)-2-(4-methoxyphenoxy)ethanone] | 12.4 (≈ 22.5 µM) | > 50 | > 50 | > 50 | > 50 | > 50 | > 50 | > 50 | 35.4 (≈ 64.2 µM) | 21.2 (≈ 38.4 µM) | > 50 | > 50 | 11.5 (≈ 20.9 µM) | > 50 | > 50 |
| Cc1ccc(CCc2nc3c(N4CCN(C(=O)COc5ccc(Br)cc5)CC4)nc(N)nc3s2)cc1 [Example 258, 1-(4-(5-amino-2-(4-methylphenethyl)thiazolo[5,4-d]pyrimidin-7-yl)piperazin-1-yl)-2-(4-bromophenoxy)ethanone] | 9.58 (≈ 16.9 µM) | > 50 | > 50 | > 50 | > 50 | 13 (≈ 22.9 µM) | > 50 | > 50 | 35.4 (≈ 62.3 µM) | 34 (≈ 60 µM) | > 50 | > 50 | 8.33 (≈ 14.7 µM) | > 50 | 46.2 (≈ 81.5 µM) |
